The results in this text go back to article doi:10.1101/614586v1 (biorxiv, 2019).

One experiment has as its target T1, S. cerevisiae Rad54 (Saccharomyces cerevisiae, UniProt P32863).
T1 sequence (P32863 1-898): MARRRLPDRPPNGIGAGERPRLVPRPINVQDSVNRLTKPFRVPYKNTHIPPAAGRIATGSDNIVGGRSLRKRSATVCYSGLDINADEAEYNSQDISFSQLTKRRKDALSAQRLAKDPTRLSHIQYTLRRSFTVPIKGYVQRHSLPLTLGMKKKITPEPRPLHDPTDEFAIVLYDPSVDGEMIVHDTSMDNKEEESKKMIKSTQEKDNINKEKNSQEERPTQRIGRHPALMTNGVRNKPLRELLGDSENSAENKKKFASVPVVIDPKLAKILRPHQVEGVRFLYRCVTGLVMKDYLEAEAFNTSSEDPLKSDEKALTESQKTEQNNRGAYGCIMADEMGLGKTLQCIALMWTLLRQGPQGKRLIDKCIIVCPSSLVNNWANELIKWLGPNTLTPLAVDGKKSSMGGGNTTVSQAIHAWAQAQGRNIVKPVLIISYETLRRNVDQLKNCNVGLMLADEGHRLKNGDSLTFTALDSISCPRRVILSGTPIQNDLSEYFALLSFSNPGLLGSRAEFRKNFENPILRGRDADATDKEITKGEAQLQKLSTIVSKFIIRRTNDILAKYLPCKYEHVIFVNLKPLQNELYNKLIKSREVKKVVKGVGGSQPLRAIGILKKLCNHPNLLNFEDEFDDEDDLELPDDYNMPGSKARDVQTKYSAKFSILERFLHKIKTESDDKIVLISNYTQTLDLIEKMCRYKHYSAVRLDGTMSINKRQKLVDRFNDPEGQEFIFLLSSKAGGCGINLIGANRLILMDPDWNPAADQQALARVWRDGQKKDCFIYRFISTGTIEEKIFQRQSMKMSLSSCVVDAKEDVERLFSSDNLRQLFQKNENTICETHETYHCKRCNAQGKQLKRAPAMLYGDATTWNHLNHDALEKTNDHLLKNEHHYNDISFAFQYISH
The experiment can be described thus: malachite green phosphate ATPase assay. The format is biochemical.

In experiment [1] the target is T2, human RAD54 (Homo sapiens, UniProt Q92698).
T2 sequence (Q92698 1-747): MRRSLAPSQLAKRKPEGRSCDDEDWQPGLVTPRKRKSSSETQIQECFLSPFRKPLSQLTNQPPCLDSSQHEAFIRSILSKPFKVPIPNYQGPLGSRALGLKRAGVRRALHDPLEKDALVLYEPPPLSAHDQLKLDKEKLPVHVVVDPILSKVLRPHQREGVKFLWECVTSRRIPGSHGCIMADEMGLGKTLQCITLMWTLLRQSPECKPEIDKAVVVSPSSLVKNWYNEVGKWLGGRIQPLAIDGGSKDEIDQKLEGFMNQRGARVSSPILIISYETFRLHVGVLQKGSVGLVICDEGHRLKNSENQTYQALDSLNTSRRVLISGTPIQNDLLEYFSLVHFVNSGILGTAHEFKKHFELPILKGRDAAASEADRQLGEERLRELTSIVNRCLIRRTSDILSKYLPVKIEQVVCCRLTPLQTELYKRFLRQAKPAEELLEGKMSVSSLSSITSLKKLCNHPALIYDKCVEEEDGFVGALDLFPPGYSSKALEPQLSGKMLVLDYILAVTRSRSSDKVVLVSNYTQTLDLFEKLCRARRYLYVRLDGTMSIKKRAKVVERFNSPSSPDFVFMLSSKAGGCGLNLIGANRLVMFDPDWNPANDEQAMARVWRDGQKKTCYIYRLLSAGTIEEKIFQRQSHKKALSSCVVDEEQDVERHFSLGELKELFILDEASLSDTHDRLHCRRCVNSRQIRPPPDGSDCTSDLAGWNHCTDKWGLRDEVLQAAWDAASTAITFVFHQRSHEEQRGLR
As to the kind of experiment: malachite green phosphate ATPase assay. It counts as biochemical.

For the next experiment, the target named is T3, S. cerevisiae Rdh54/Tid1 (Saccharomyces cerevisiae, UniProt P38086).
T3 sequence (P38086 35-958 limits assumed): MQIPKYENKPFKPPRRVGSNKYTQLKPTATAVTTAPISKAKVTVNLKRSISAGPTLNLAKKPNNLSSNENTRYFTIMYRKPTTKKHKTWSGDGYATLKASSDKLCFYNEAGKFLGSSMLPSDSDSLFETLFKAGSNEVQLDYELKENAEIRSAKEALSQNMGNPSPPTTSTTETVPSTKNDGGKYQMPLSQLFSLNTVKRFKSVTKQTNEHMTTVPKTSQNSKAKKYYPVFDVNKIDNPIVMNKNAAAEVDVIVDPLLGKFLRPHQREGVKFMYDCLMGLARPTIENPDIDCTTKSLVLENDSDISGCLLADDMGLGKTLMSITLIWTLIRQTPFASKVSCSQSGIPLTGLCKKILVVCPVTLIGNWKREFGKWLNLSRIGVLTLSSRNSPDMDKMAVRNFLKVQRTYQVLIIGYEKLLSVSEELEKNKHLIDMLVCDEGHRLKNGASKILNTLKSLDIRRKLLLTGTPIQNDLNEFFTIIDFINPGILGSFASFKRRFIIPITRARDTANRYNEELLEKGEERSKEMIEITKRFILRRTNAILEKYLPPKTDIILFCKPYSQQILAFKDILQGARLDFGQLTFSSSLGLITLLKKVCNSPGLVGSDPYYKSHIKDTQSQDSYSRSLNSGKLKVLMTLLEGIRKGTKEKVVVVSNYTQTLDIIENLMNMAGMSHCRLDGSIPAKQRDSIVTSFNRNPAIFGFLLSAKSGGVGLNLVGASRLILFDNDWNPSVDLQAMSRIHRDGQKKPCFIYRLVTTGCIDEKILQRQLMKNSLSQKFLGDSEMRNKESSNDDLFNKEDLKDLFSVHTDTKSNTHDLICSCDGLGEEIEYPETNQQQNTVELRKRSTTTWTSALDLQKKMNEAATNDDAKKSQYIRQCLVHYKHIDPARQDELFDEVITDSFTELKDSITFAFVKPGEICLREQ
As to the kind of experiment: malachite green phosphate ATPase assay. It counts as biochemical.

In experiment [2] the target is T2, human RAD54. The experiment can be described thus: biochemical. The following applies: read-out: % inh.

As to `CN(C)CCCNCC(O)Cn1c2ccc(Cl)cc2c2cc(Cl)ccc21` (stereo not shown) [54i-1], the concentration for half-maximal inhibition (IC50) (usually the concentration that gives 50% inhibition) was 3.8 ± 1.8 µM against S. cerevisiae Rad54, 5 ± 1.05 µM on human RAD54 [1] and 43.2 ± 2.9 µM against S. cerevisiae Rdh54/Tid1. Further, at human RAD54 [2], the inhibition at 10 µM came out at 68%.
